For data set [1] the following is noted: in water at 20° C.; cited from earlier work.
Data set [2] relates to Parkinson's disease. The following applies: patients undergoing treatment with L-Dopa; cited from earlier work.
The next data set concerns rabbits. Nature of the data set: Skin irritation study in rabbits, modified Draize irritation protocol. Conditions: conclusion in words from Table 4. The format is in vivo, rabbit. As for the experimental part: The skin irritation study in rabbits using a modified Draize irritation protocol. The treatments included:
1) different activities of ropinirole in the selected vehicle that gave the highest flux of ropinirole slat; and
2) ropinirole in two selected vehicles. A proprietary vehicle that has been used in skin flux studies were tested as a control.
Mineral oil was used as the negative control in the study. The mean primary irritation score for each treatment was calculated.
3) ropinirole and base in three prototype systems (36048C, 36047G and 36040F; see Table 4 in Example 3, below).
Various ropinirole formulations were prepared and irritation studies conducted as described above.

The next data set concerns dopamine D2. The following applies: versus bromocriptine and pergolide; cited from earlier work.
The subject of data set [3] is Parkinson's disease. Conditions: statement in words; cited from earlier work.

Where a name gives a salt, the structure may show the parent alone.

Usually solubility stands for how much of the substance goes into solution per volume. Take `CCCN(CCC)CCc1cccc2c1CC(=O)N2` [Ropinirole hydrochloride]: in data set [1], the solubility is 133 mg/mL.

With `N[C@@H](Cc1ccc(O)c(O)c1)C(=O)O` [L-Dopa], the therapeutic response fluctuations result in the data set with Parkinson's disease [2] is on record as “severe therapeutic response fluctuations”.

As to `CCCN(CCC)CCc1cccc2c1CC(=O)N2` [ropinirole, 4-[2-(dipropylamino)ethyl]-1,3-dihydro-2H-indol-2-one], in the data set on rabbits, the “irritation encountered upon transdermal administration” value is given as “minimal”. In addition, the “specificity as dopamine D2 agonist” value in the data set with dopamine D2 is “more specific dopamine D2 agonist than other dopamine agonists such as bromocriptine and pergolide”. The “effectiveness in the treatment of Parkinson's disease” value in the data set on Parkinson's disease [3] is “effective in the treatment of Parkinson's disease”.

The values above are taken from patent publication US5807570A, “Transdermal administration of ropinirole and analogs thereof” (priority 1996, dated 1998).
